Experiments:
[1] = biological target: human FPR2 receptors (Homo sapiens (Human), UniProt P25090); experiment: FPR2 cyclic adenosine monophosphate (cAMP) assay; assay type: cell-based; conditions: CHO cells overexpressing human FPR2; forskolin 5 μM, IBMX 200 μM; inhibition of cAMP production; read-out: hFPR2 cAMP2 EC50
Protocol: (§1) FPR2 and FPR1 Cyclic Adenosine Monophosphate (cAMP) Assays. A mixture of forskolin (5 μM final for FPR2 or 10 μM final for FPR1) and IBMX (200 μM final) were added to 384-well Proxiplates (Perkin-Elmer) pre-dotted with test compounds in DMSO (1% final) at final concentrations in the range of 1.7 nM to 100 μM. Chinese Hamster Ovary cells (CHO) overexpressing human FPR1 or human FPR2 receptors were cultured in F-12 (Ham's) medium supplemented with 10% qualified FBS, 250 μg/ml zeocin and 300 μg/ml hygromycin (Life Technologies). Reactions were initiated by adding 2,000 human FPR2 cells per well or 4,000 human FPR1 cells per well in Dulbecco's PBS (with calcium and magnesium) (Life Technologies) supplemented with 0.1% BSA (Perkin-Elmer). The reaction mixtures were incubated for 30 min at room temperature. The level of intracellular cAMP was determined using the HTRF HiRange cAMP assay reagent kit (Cisbio) according to manufacturer's instruction. Solutions of cryptate conjugated anti-cAMP and d2 flurorophore-labelled cAMP were made in a supplied lysis buffer separately. Upon completion of the reaction, the cells were lysed with equal volume of the d2-cAMP solution and anti-cAMP solution. After a 1-h room temperature incubation, time-resolved fluorescence intensity was measured using the Envision (Perkin-Elmer) at 400 nm excitation and dual emission at 590 nm and 665 nm. A calibration curve was constructed with an external cAMP standard at concentrations ranging from 1 μM to 0.1 pM by plotting the fluorescent intensity ratio from 665 nm emission to the intensity from the 590 nm emission against cAMP concentrations. The potency and activity of a compound to inhibit cAMP production was then determined by fitting to a 4-parametric logistic equation from a plot of cAMP level versus compound concentrations.

[2] = biological target: human FPR1 receptors (Homo sapiens (Human), UniProt P21462); experiment: FPR1 cyclic adenosine monophosphate (cAMP) assay; assay type: cell-based; conditions: CHO cells overexpressing human FPR1; forskolin 10 μM, IBMX 200 μM; inhibition of cAMP production; read-out: hFPR1 cAMP EC50
Protocol: as §1

human FPR2 receptors, sequence (P25090 whole entry): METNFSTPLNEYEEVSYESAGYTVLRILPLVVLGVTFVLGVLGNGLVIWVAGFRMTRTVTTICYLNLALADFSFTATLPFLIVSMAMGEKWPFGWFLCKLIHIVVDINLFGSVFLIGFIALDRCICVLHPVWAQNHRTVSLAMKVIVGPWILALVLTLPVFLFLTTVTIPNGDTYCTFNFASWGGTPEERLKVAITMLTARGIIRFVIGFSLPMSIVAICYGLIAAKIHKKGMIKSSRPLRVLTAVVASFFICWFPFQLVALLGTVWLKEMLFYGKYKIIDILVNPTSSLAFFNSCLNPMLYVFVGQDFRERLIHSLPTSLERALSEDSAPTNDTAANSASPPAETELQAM
human FPR1 receptors, sequence (P21462 whole entry): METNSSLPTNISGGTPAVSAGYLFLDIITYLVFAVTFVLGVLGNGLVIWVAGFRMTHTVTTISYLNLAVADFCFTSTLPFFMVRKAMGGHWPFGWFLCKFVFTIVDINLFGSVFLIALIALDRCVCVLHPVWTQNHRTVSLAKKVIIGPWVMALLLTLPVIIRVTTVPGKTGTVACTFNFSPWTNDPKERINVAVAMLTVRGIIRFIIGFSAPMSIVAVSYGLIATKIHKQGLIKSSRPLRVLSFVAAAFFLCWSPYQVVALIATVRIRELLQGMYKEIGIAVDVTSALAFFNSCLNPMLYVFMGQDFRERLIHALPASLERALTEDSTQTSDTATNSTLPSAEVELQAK

EC50 [1] [µM] | EC50 [2] [µM] | SMILES
0.96 | > 5000 | O=C(Nc1ccc(C(F)(F)F)nc1)N[C@H]1CCCN(c2ccc(C3(CN4CCCC4)CCC3)cc2)C1=O [Example 57, (S)-1-(2-oxo-1-(4-(1-(pyrrolidin-1-ylmethyl)cyclobutyl)phenyl)piperidin-3-yl)-3-(6-(trifluoromethyl)pyridin-3-yl)urea]
0.019 | 0.66 | CS(=O)(=O)NCC1(c2ccc(N3C[C@@H](O)C[C@H](NC(=O)Nc4ncc(C(F)(F)F)cc4F)C3=O)cc2)CC1 [Example 69, N-((1-(4-((3S,5S)-3-(3-(3-fluoro-5-(trifluoromethyl)pyridin-2-yl)ureido)-5-hydroxy-2-oxopiperidin-1-yl)phenyl)cyclopropyl)methyl)methanesulfonamide]
0.017 | 2.1 | CS(=O)(=O)NCC1(c2ccc(N3C[C@@H](O)C[C@@H](NC(=O)Nc4ncc(Cl)cc4F)C3=O)cc2)CC1 [Example 71]
83 | 330 | CC(=O)NC(C)C1(c2ccc(N3CCC[C@@H](NC(=O)Nc4ccc(C(F)(F)F)nc4)C3=O)cc2)CC1 (stereo partly drawn) [Example 73]

Continued, compound first:

SMILES | EC50 [1] [µM] | EC50 [2] [µM]
O=C(Nc1ccc(C(F)(F)F)nc1)N[C@@H]1CCCN(c2ccc(C3(CN4CCOCC4)CCC3)cc2)C1=O [Example 52, (R)-1-(1-(4-(1-(Morpholinomethyl)cyclobutyl)phenyl)-2-oxopiperidin-3-yl)-3-(6-(trifluoromethyl)pyridin-3-yl)urea] | 0.017 | 0.56
O=C(Nc1ccc(Cl)cn1)N[C@@H]1CCCN(c2ccc(C3(CN4CCOCC4)CC3)cc2)C1=O [Example 53, (R)-1-(5-chloropyridin-2-yl)-3-(1-(4-(1-(morpholinomethyl)cyclopropyl)phenyl)-2-oxopiperidin-3-yl)urea] | 0.017 | 0.7
O=C(Nc1ccc(C(F)(F)F)nc1)N[C@H]1CCCN(c2ccc(C3(CN4CCCC4)CCCC3)cc2)C1=O [Example 58, (S)-1-(2-oxo-1-(4-(1-(pyrrolidin-1-ylmethyl)cyclopentyl)phenyl)piperidin-3-yl)-3-(6-(trifluoromethyl)pyridin-3-yl)urea] | 1 | 3.4
O=C(Nc1ccc(C(F)(F)F)nc1)N[C@H]1CCCN(c2ccc(C3(CN4CCOCC4)CCC3)cc2)C1=O [Example 62, (S)-1-(1-(4-(1-(morpholinomethyl)cyclobutyl)phenyl)-2-oxopipendin-3-yl)-3-(6-(trifluoromethyl)pyridin-3-yl)urea] | 1.2 | 1.1
O=C(Nc1ccc(Cl)cc1F)N[C@@H]1CCCN(c2ccc(C3CCC(O)C3)cc2)C1=O (stereo partly drawn) [Example 77, 1-(4-Chloro-2-fluorophenyl)-3-((3R)-1-(4-(3-hydroxycyclopentyl)phenyl)-2-oxopiperidin-3-yl)urea] | 3.2 | 3.6

From patent US11124494B2, “Aryl heterocyclic piperidinone formyl peptide 2 receptor and formyl peptide 1 receptor agonists” (Bristol-Myers Squibb Company, priority 2017, dated 2021)
